Experimental findings from patent US10227371B2, “Polymorphs and new solid states of tiacumicin B” (XELLIA PHARMACEUTICALS APS, priority 2014, dated 2019) are described below.

Type in all cases: physicochemical
Series [1] in a line: Hygroscopicity / water uptake of high purity amorphous Tiacumicin material. An excerpt:
Thus the high purity amorphous Tiacumicin material is relatively stable with respect to crystallization and suitable for long-term storage (e.g storage for 3 months, 6 months, 9 months etc.).

Series [2] is described as follows: Stability of high purity amorphous Tiacumicin material on storage (XRPD). The procedure: Stoe Stadi P; Mythen1K Detector; Cu-Kα1 radiation; standard measurement conditions: transmission; 40 kV and 40 mA tube power; curved Ge monochromator; 0.02°2θ step size, 12 s step time, 1.5-50.5°2θ scanning range; detector mode: step scan; 1°2θ detector step; standard sample preparation: 10 to 20 mg sample was placed between two acetate foils; sample holder: Stoe transmission sample holder; the sample was rotated during the measurement. Filenames of patterns recorded on this instrument consist of a three-digit number followed by a letter.
Bruker D8; Copper Ka radiation, 40 kV/40 mA; LynxEye detector, 0.02°2θ step size, 37 s step time.
The samples were generally measured without any special treatment other than the application of slight pressure to get a flat surface. Silicon single crystal sample holder types: a) standard holder for polymorphism screening, 0.1 mm deep, less than 20 mg sample required; b) 0.5 mm deep, 12 mm cavity diameter for c. 40 mg; c) 1.0 mm deep, 12 mm cavity diameter for c. 80 mg. All samples measured on the Bruker D8 are rotated during the measurement.
Several samples of high purity amorphous Tiacumicin B material were stored at 40° C./75% relative humidity.
Several samples of high purity amorphous Tiacumicin B material were stored at room temperature under normal light conditions.

Series [3] can be described thus: XRPD of Tiacumicin solvate forms during storage. To be noted: FIG. 8A / FIG. 9A. The text has this:
FIG. 8A: XRPD of the Tiacumicin solvate form a during storage. FIG. 9A: XRPD of the Tiacumicin solvate form β during storage. The obtained material comprised 16% w/w acetic acid as measured by TG-FTIR. The obtained material comprised 9% w/w isopropylacetate as measured by TG-FTIR.

With `CCc1c(Cl)c(O)c(Cl)c(O)c1C(=O)O[C@H]1[C@H](O)[C@H](OC)[C@H](OC/C2=C\C=C\C[C@H](O)/C(C)=C/[C@H](CC)[C@@H](O[C@@H]3OC(C)(C)[C@@H](OC(=O)C(C)C)[C@H](O)[C@@H]3O)/C(C)=C/C(C)=C/C[C@@H]([C@@H](C)O)OC2=O)O[C@@H]1C` [Tiacumicin B], the Deliquescence entry in series [1] is on record as “not deliquescent”. In addition, in series [1] (FIG. 7C), the “Hygroscopicity (water uptake)” value was “hygroscopic with near linear water uptake”. In series [2] (as demonstrated in example 7), the “Suitability for storage (stability with respect to crystallization)” value is recorded as “suitable for storage”. Also, the “Solid state by XRPD after storage” value in series [2] (room temperature storage, at 3 months) is given as “amorphous material”; in series [2] (stored at 40° C./75% relative humidity, XRPDs at start, 24 hours, 7 days and 1 month) it was “amorphous material”; in series [2] (stored at room temperature under normal light conditions, XRPDs at start, 1 month and 2 months) it was “amorphous material”.
For the molecule `CCc1c(Cl)c(O)c(Cl)c(O)c1C(=O)O[C@H]1[C@H](O)[C@H](OC)[C@H](OC/C2=C\C=C\C[C@H](O)/C(C)=C/[C@H](CC)[C@@H](O[C@@H]3OC(C)(C)[C@@H](OC(=O)C(C)C)[C@H](O)[C@@H]3O)/C(C)=C/C(C)=C/C[C@@H]([C@@H](C)O)OC2=O)O[C@@H]1C` [form α of Tiacumicin B, Tiacumicin B], the “Suitability for storage (XRPD during storage)” value in series [3] is on record as “storage suitable”.
